These results are taken from patent US12091653B2, “Strain of Glutamicibacter, originating from insects, capable of efficiently degrading bifenthrin” (Anhui Agricultural University, priority 2023, dated 2024).

In the data set the test system is E. grisescens larvae. As to the kind of experiment: Toxicity testing of 2,4-di-tert-butylphenol in artificial food fed to E. grisescens larvae. Format: in vivo, Ectropis grisescens. As to conditions: 100 mg/L in sterile artificial food, 48 hours. The method, then:
A stock solution of 2,4-di-tert-butylphenol (purchased from Beijing Solarbio Science & Technology Co., Ltd., HPLC≥99%) was prepared following the preparation method for bifenthrin stock solution. This stock solution was added to sterile artificial food at a final concentration of 100 mg/L. This food was used to feed 30 healthy 4-5 aged E. grisescens larvae. The control group was fed normal sterile artificial food.

With `CC(C)(C)c1ccc(O)c(C(C)(C)C)c1` [2,4-di-tert-butylphenol], the “toxicity to E. grisescens larvae” value is on record as “little to no toxicity”. Also, the “survival rate of E. grisescens larvae” value (control food 93.33%) is given as 94.45%.
